How the values were obtained:
[1] = system: U-87 cells (IDH1 wild-type); experiment: Cytotoxicity, sphere culture with LDL, combination with ezetimibe (ATP); format: cell-based, human; conditions: 7 days, LDL 5 µg/mL
Protocol: U-87 cells were cultured for 7 days in sphere medium supplemented with LDL at a concentration of 5 µg/mL, with either ezetimibe (a cholesterol absorption inhibitor) added at 3.3, 10, or 30 µM, Compound 1 added at 1 µM, or a combination of both agents. Cell viability was calculated in the same manner as in Example 12, and the cytotoxic effects of each treatment were compared between single-agent and combination conditions.

[2] = system: IDH1 R132H mutant U-87 cells; experiment: Cytotoxicity assay, sphere culture with LDL supplementation (ATP); format: cell-based, human; conditions: 1 µM; 7 days sphere culture; LDL 5 µg/mL
Protocol: U-87 cells were established with a tetracycline-inducible IDH1 R132H mutation expression system. The cells were cultured in the presence of doxycycline (1 µM), a tetracycline derivative, for 5 days to induce the IDH1 R132H mutation. After induction of the mutation, the cells were transferred to sphere culture medium (containing B-27 supplement, epidermal growth factor, cell proliferation factors, insulin, and low-density lipoprotein [LDL]), and cultured for 7 days under sphere-forming conditions after the addition of Compound 1 (1 µM). The LDL concentration in the medium was 5 µg/mL. After incubation, cellular ATP levels were quantified as an indicator of cell viability, and cell viability was calculated as the ratio relative to ATP levels under vehicle-only conditions. Using this approach, the cytotoxic effects of the present compound under LDL-supplemented conditions were compared between wild-type (doxycycline-) and mutant (doxycycline+) cells.

[3] = system: recurrent malignant glioma classified as WHO grade III or IV; experiment: Phase 1 clinical trial: preliminary antitumor activity (RANO criteria); format: in vivo, human
Protocol: Each treatment cycle was defined as 28 days, during which safety and treatment response were evaluated. Administration to each subject was continued until unacceptable toxicity occurred, consent was withdrawn, the subject was lost to follow-up, or discontinuation was determined by the investigator and/or the sponsor.

MC38 cells = experiment: In vivo efficacy, combination with ipilimumab, MC38 tumors; set-up: species or system C57BL/6J mice; conditions: Compound 1 3 mg/kg or 30 mg/kg once daily + ipilimumab 5 mg/kg once weekly; MC38, subcutaneous
Protocol: MC38 cells (3 x 10^5) were subcutaneously implanted into C57BL/6J mice (n = 6) to establish tumors. On day 12 after implantation, administration was initiated with Compound 1 at 3 mg/kg or 30 mg/kg (once daily) and ipilimumab (an anti-CTLA-4 antibody) at 5 mg/kg (once weekly), and the efficacy of each monotherapy and the combination therapy was compared.
(§1) Tumor volume was calculated using the following formula based on the short and long diameters of the tumor measured with digital calipers (Mitutoyo). [formula]
(§2) The antitumor effect was evaluated by comparing the vehicle-treated control group with the test substance-treated group, and calculating T/C using the following formula. [formula]

B16 cells = experiment: In vivo efficacy, combination with ipilimumab, B16 tumors; set-up: species or system C57BL/6J mice; conditions: Compound 1 3 mg/kg or 10 mg/kg once daily + ipilimumab 5 mg/kg once weekly; B16, subcutaneous
Protocol: B16 cells (3 x 10^5) were subcutaneously implanted into C57BL/6J mice (n = 6) to establish tumors. On day 12 after implantation, administration was initiated with Compound 1 at 3 mg/kg or 10 mg/kg (once daily) and ipilimumab (an anti-CTLA-4 antibody) at 5 mg/kg (once weekly), and the efficacy of each monotherapy and the combination therapy was compared.
as §1, §2

EBP = biological target: T1, EBP (Homo sapiens, UniProt Q15125); experiment: Phase 1 clinical trial: pharmacodynamics, Lathosterol/Zymostenol (L/Z) ratio; format: in vivo; conditions: for decrease of mean L/Z ratio: Cycle 1 Day 2 (C1D2), as of April 2024
T1 construct: endogenous in cells; host or cells: Patients with recurrent malignant glioma (WHO grade III or IV), in vivo; sterol ratio assessed in serum
T1 sequence (Q15125 whole entry): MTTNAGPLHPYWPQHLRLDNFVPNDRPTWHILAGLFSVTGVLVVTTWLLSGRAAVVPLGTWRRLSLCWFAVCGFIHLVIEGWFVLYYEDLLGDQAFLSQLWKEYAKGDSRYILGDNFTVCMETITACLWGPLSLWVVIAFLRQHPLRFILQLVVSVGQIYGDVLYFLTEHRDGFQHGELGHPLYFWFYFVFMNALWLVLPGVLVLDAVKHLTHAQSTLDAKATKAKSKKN
From the text: As of September 2023, pharmacodynamic assessments had clearly shown that Compound 1 inhibited the target, at least in serum. […] (Figure 5)

BT142 cells = experiment: Cytotoxicity assay, LDL-supplemented sphere culture, low-grade glioma line (ATP); format: cell-based; conditions: 1 µM; 7 days; LDL 5 µg/mL; BT142 (IDH1 mutant-type, R132H/-)
Protocol: U-87 cells (IDH1 wild-type) and BT142 cells derived from low-grade glioma (IDH1 mutant-type, R132H/-) were cultured for 7 days in LDL-supplemented sphere medium in the presence or absence of Compound 1 (1 µM). The LDL concentration was 5 µg/mL. After incubation, intracellular ATP levels were quantified as an indicator of cell viability, and cytotoxicity was compared between conditions.

CC1(C)Oc2cc(Cl)ccc2[C@@H]2OCC3(CCN(CCn4ccnc4)CC3)C[C@H]21 [Compound 1, (4'aR,10'bR)-8'-chloro-1-[2-(1H-imidazol-1-yl)ethyl]-5',5'-dimethyl-4'a,10'b-dihydro-2'H,4'H,5'H-spiro[piperidine-4,3'-pyrano[3,2-c][1]benzopyran] diphosphate]
cytotoxicity of the combination of Compound 1 and ezetimibe ([1]; Compound 1 1 µM + ezetimibe 3.3, 10, or 30 µM): potent cytotoxic effects | cytotoxicity, single agent ([1]; Compound 1 at 1 µM): low cytotoxicity | cytotoxicity in mutant versus wild-type cells [2]: statistically-significantly stronger cytotoxicity in IDH1 R132H mutant cells compared with wild-type cells | stable disease ([3]; 180 mg QD and 240 mg QD): prolonged stable disease (SD) was observed | discontinuation due to objective disease progression (RANO criteria) ([3]; 360 mg QD and 480 mg daily (240 mg BID)): most patients discontinued administration of Compound 1 within two months | patients with preliminary antitumor activity (monotherapy) ([3]; Dose Escalation Part, as of September 2023): 4 patients | tumor reduction (enhancing lesions, RANO criteria; reduction from baseline) ([3]; first patient with IDH-mutant WHO Grade III glioma, 20 mg QD): 22% | time remained on study ([3]; patient with 22% tumor reduction): 15 months | time remained on study ([3]; patient with 100% tumor reduction, as of September 2023): 13 months | time remained on study ([3]; patient with 100% tumor reduction, cutoff April 21, 2024): 20 months | response ([3]; patient with WHO grade III astrocytoma with IDH mutation, 120 mg, after more than one year of treatment): complete response (CR) | tumor reduction (enhancing lesions, RANO criteria; reduction from baseline) ([3]; second patient with IDH-mutant WHO Grade III glioma, 120 mg QD): 100% | antitumor effect in combination with ipilimumab (MC38 cells): remarkably pronounced antitumor effect | antitumor effect in combination with ipilimumab (B16 cells): remarkably pronounced antitumor effect | reduction in the L/Z ratio versus lower dose levels (EBP; 480 mg per day (240 mg BID)): did not show a greater reduction in the L/Z ratio than those at the 180-360 mg QD dose levels | decrease of mean L/Z ratio (EBP; 20 mg QD): 70% | decrease of mean L/Z ratio (EBP; 180 mg and 240 mg QD): 95-97% | decrease of mean L/Z ratio (EBP; 360 mg QD): 97.5% | decrease of mean L/Z ratio (EBP; 40-120 mg QD): 85-91% | decrease of L/Z ratio (EBP; Cycle 1 Day 8 (C1D8), 20-360 mg QD, maintained in subsequent cycles): approximately 100% | blood L/Z ratio across dose groups (EBP; from the 180 mg QD to 360 mg QD dose groups): remained at a similar level | decrease of the ratio of lathosterol and zymostenol (L/Z ratio) (EBP; serum, starting from 40 mg QD cohort, as of September 2023): over 80% | cytotoxicity (BT142 cells): marked cytotoxicity

Source: patent EP4806435A1, “DIHYDROCHROMENE-DERIVATIVE-CONTAINING THERAPEUTIC AGENT FOR CANCER” (Sumitomo Pharma Co., Ltd., priority 2023, dated 2025)
